Type in all cases: physicochemical
The nature of data set [1]: Gravimetric water solubility by TGA. Particulars: deionized water, ambient, TGA gravimetric or visual dissolution, XRPD Form A. As to the method:
The water solubility of select salts afforded from the 70 mg scale experiments was estimated using the following gravimetric method. Approximately 20 mg of each confirmed salt was weighed into a 2 mL HPLC vial. 50 μL increments of deionized H2O were then added to each vial along with a small magnetic stir bar. If dissolution was observed, the samples were stored in a hood overnight and examined the next day for precipitation. Samples affording slurries after a maximum of 250 μl of water were left stirring at ambient conditions overnight to equilibrate. These samples were then centrifuge filtered, and 50 μL of each saturated solution was aliquoted into tared TGA pans. On the TGA, each sample was heated and held at elevated temperature until all solvent was dried off. Resulting dry weight and aliquoted volume for each saturated solution was then utilized in estimating solubility. Refer to Table 3 for results of this study.

Data set [2] can be described thus: Aqueous solubility study (water slurry, HPLC, pH, XRPD). Particulars: for pH: pH of supernatant of overnight water slurry; for XRPD (Form) after water slurry: solids after overnight room temperature water slurry, initial Form A. As to the method: Approximately 20 mg of the free form, mesylate, hydrochloride, succinate, glutamate, naphthoate and phosphate salts of formula (I) were weighed to individual HPLC vials equipped with a magnetic stir bar and 0.05 mL increments of deionized water added. If dissolution was observed, the approximate solubility was recorded. If no dissolution had occurred, the slurries were stirred overnight at ambient temperature. The supernatant from each slurry was obtained using centrifuge filters. Each solution was tested for pH and by HPLG versus a calibration curve (FIG. 6) to determine the equilibrium solubility. Solids obtained from the filtration were analyzed by XRPD to confirm the crystalline form (Table 4).

Data set [3] can be described thus: Stability at elevated temperature (60° C., 7 days). Particulars: for XRPD (Form) after elevated temperature: 60° C., 7 days, uncovered, ambient pressure, initial Form A. As to the method:
Approximately 10 mg of the free form, mesylate, hydrochloride, succinate, glutamate, naphthoate and phosphate salts of formula (I) were weighed to individual 4 mL vials and stored uncovered in an oven at 60° C. and ambient pressure. After seven days of exposure, the solids were analyzed by XRPD to check for form conversion and ^1H-NMR for signs of degradation (Table 5).

Data set [4] can be described thus: Organic slurry experiments (7 days, THF or IPA). Particulars: initial Form A. The procedure: Approximately 30 mg of the free form, mesylate, hydrochloride, succinate, glutamate, naphthoate and phosphate salts of formula (I) were weighed to individual HPLG vials equipped with a magnetic stir bar. Either THF or IPA was added to obtain a free flowing slurry. After seven days of ambient equilibration, solid from each slurry was obtained using centrifuge filtration with 0.45 μm nylon centrifuge filters, and dried at ambient temperature and ˜30 in Hg. After drying overnight, each was analyzed by XRPD to check for form conversion and ^1H-NMR for signs of degradation (Table 6).

A short description of data set [5]: Gravimetric moisture sorption analysis. Particulars: for water adsorbed / hygroscopicity / behaviour at high relative humidity: Form A; for hygroscopicity: gravimetric moisture sorption; for XRPD of dried material following moisture sorption program: initial Form A; for behaviour at high relative humidity: above 80% RH (80% RH to 90% RH). As to the method: The stability of each salt was assessed via room temperature slurries in organic solvent and water, storage at elevated temperature (60° C.), and exposure to elevated relative humidity by gravimetric moisture sorption. From the water slurries, the solubility of each salt was determined at ambient conditions.

The nature of data set [6]: Relative humidity study (95% RH). Particulars: five hours, Form A lot HAL-G-29(2). The procedure: Approximately 30 mg of Form A mono-glutamate salt [lot HAL-G-29(2)] was stored uncovered in a small glass container in a desiccator containing an aqueous saturated solution of Na2HPO4.12H2O to achieve a relative humidity of 95%. After five hours of exposure the solid had deliquesced and the sample was exposed to the lab environment (20% RH) overnight. The resulting dried solid was characterized by XRPD, DSC, and TGA.
As presented above, Form B was obtained following moisture sorption analysis of Form A and subsequent drying. In an effort to generate additional Form B for further characterization, a brief humidity study was performed as described below: approximately 30 mg of Form A mono-glutamate salt [lot HAL-G-29(2)] was stored uncovered in a small glass container in a desiccator containing an aqueous saturated solution of Na2HPO4.12H2O to achieve a relative humidity of 95%.

Converted amounts (≈) assume the structure as drawn.

Turning to `O=C(O)c1ccc2ccccc2c1O` [1-hydroxy-2-napthoic acid], the “Estimated Water Solubility” value in data set [1] is 4700 µg/mL. Also, the “Aqueous Solubility” value in data set [2] (deionized water, ambient temperature, overnight slurry, HPLC or visual dissolution, initial XRPD Form A) amounted to 2300 µg/mL. Moreover, in data set [2], the pH was 6.2 and the “XRPD (Form) after water slurry” value is “Form C”. In addition, the “XRPD (Form) after elevated temperature” value in data set [3] is listed as “Form B”. The “XRPD (Form) 7 Days” value in data set [4] (ambient slurry in IPA) is on record as “Form B”. In data set [5] (60% RH), this compound gave a water adsorbed of 1.5 wt %. In data set [5] (90% RH), this compound came in with a water adsorbed of 2.5 wt %. Further, the “water content during desorption” value in data set [5] (curve stabilized from 75%-55% RH) is “approximately 2.0 wt %”. In addition, in data set [5], the hygroscopicity entry is on record as “moderately hygroscopic” and the “XRPD of dried material following moisture sorption program” value is reported as “Form B”.

In the case of `O=C1CCC(C(=O)O)N1` (centres unmarked) [2-pyrrolidine-5-carboxylic acid], in data set [3], the “1H-NMR, signs of degradation” value is “No” and the “XRPD (Form) after elevated temperature” value is listed as “no signs of conversion”. Also, the “behaviour at 95% RH” value in data set [6] is “deliquesced”. The “XRPD (Form) 7 Days” value in data set [4] (ambient slurry in IPA) is given as “no signs of conversion”. For the same compound, the “behaviour at high relative humidity” value in data set [5] (listed as glutamate) is “deliquesced”. Moreover, the “behaviour at high relative humidity” value in data set [5] (listed as mono-glutamate salt) is reported as “deliquescence”. In data set [5], the hygroscopicity result is on record as “relatively non-hygroscopic” and the “XRPD of dried material following moisture sorption program” value is “Form B”.

As to `O=C1c2cccc3[nH]nc(c23)CCN1[C@@H]1CN2CCC1CC2` [Free Form, (S)-7-(quinuclidin-3-yl)-8,9-dihydro-2H-azepino[5,4,3-cd]indazol-6(7H)-one], the solubility in data set [1] (thermodynamic from solid, read-out: Estimated Water Solubility) was < 2500 µg/mL. Moreover, in data set [2], the pH stood at 9.3 and the “XRPD (Form) after water slurry” value is “no change in crystalline form”. Besides, the solubility in data set [2] (thermodynamic from solid, deionized water, ambient temperature, overnight slurry, HPLC or visual dissolution, initial XRPD Form A) came out at 2000 µg/mL (≈ 6.75 mM). Further, in data set [3], the “1H-NMR, signs of degradation” value was “No” and the “XRPD (Form) after elevated temperature” value is given as “no signs of form conversion”. Further, in data set [5], the hygroscopicity result is given as “non hygroscopic” and the “XRPD of dried material following moisture sorption program” value is recorded as “form conversion had not occurred”. The water adsorbed entry in data set [5] (throughout the humidity program) is “less than 0.2 wt %”.

Take `Cl` [Hydrochloric acid]: the “XRPD (Form) after elevated temperature” value in data set [3] was “no signs of conversion”. Further, the “XRPD (Form) 7 Days” value in data set [4] (ambient slurry in IPA) was “no signs of conversion”.

As to `O=C(O)C[C@H](O)C(=O)O` [L-Malic acid], the “Estimated Water Solubility” value in data set [1] is ≥80000 µg/mL; in data set [1] (listed as malate salt), 80000 µg/mL.

For the compound `CS(=O)(=O)O` [Methanesulfonic acid], the “XRPD (Form) after elevated temperature” value in data set [3] was “no signs of conversion”. For the same compound, the “XRPD (Form) 7 Days” value in data set [4] (ambient slurry in THF) is reported as “no signs of conversion”. Moreover, the water adsorbed in data set [5] (80% RH) was determined as 4.6 wt %; in data set [5] (90% RH) it was 8.8 wt %. In addition, in data set [5], the hygroscopicity entry is “moderately hygroscopic”. The “XRPD of dried material following moisture sorption program” value in data set [5] is on record as “no form conversion had occurred”.

On to `O=P(O)(O)O` [Phosphoric acid], for which, in data set [3], the “XRPD (Form) after elevated temperature” value is given as “no signs of conversion”. The “XRPD (Form) 7 Days” value in data set [4] (ambient slurry in IPA) was “no signs of conversion”.

`O=C(O)CCC(=O)O` [Succinic acid]: the “XRPD (Form) after elevated temperature” value in data set [3] is given as “no signs of conversion”. The “XRPD (Form) 7 Days” value in data set [4] (ambient slurry in IPA) is recorded as “no signs of conversion”.

Take `Cc1ccc(S(=O)(=O)O)cc1` [p-toluenesulfonic acid]: the “Estimated Water Solubility” value is 17400 µg/mL in data set [1] and 20300 µg/mL in data set [1] (listed as tosylate salt).

Broadly, the Aqueous Solubility is how much of the substance goes into solution per volume. As usually defined, the solubility is how much of the substance goes into solution per volume.

(Values after patent US20230105412A1, “5-HT3 RECEPTOR MODULATOR, THE CRYSTALLINE FORM, METHODS OF MAKING, AND USE THEREOF” (CHENGDU SCIMOUNT PHARMATECH CO., LTD., priority 2021, published 2023).)
